Tested on: peripheral acetylcholine-like effects
Experiment: Side effect profile: in vivo overt effects (salivation, tremor, diarrhea) after oral administration
Parameters: species or system rat
Settings: (rat) po
Excerpt: The use of the radioligand binding assays (^3 H-QNB and ^3 H-CD) to characterize the hydroxylated oxotremorine derivatives provides a useful first approximation for,the evaluation of the muscarinic agonist-like profile of a test compound. However, in using a prodrug methodology, intrinsic activity will not be observed until in vivo hydrolysis or metabolism to the active compound occurs. Therefore, radioligand binding data, performed on the carbonyl derivatives, will not provide leading information. As a result, the observed overt effects after oral administration to rats of the test carbonyl derivative, relative to its corresponding hydroxylated oxotremorine compound, became the primary in vivo pharmacological measure. These in vivo overt effects are attributed to the peripheral acetylcholine-like effects of the compound, such as salivation, tremor and diarrhea. The in vivo overt effects also providing dosing information for the behavioral tests of cognitive improvement.

Structure (SMILES)	Side Effect Profile minimum effective dose (MED) [μ mol/kg]
CCCC(=O)O[C@H]1CCN(CC#CCN(C)C)C1=O [(S)-Butanoic acid 1-[4-(dimethylamino)-2-butynyl]-2-oxo-3-pyrrolidinyl ester]	8.0
CCCCCCNC(=O)O[C@@H]1CCN(CC#CCN(C)C)C1=O [(R)-Hexylcarbamic acid 1-[4-(dimethylamino)-2-butynyl]-2-oxo-3-pyrrolidinyl ester]	> 530
CCCC(=O)O[C@H]1CCN(CC#CCN2CCCC2)C1=O [(S)-Butanoic acid 2-oxo-1-[4-(1-pyrrolidinyl)-2-butynyl]-3-pyrrolidinyl ester]	1.7
CCOC(=O)O[C@H]1CCN(CC#CCN2CCCC2)C1=O [(S)-2-Oxo-1-[4-(1-pyrrolidinyl)-2-butynyl]-3-pyrrolidinyl carbonic acid ethyl ester]	1.7
CCCC(=O)O[C@@H]1CCN(CC#CCN(C)C)C1=O [(R)-Butanoic acid 1-[4-(dimethylamino)-2-butynyl]-2-oxo-3-pyrrolidinyl ester]	127
CCCCNC(=O)O[C@H]1CCN(CC#CCN(C)C)C1=O [(S)-Butylcarbamic acid 1-[4-(dimethylamino)-2-butynyl]-2-oxo-3-pyrrolidinyl ester]	> 493
CCCCCCCCNC(=O)O[C@H]1CCN(CC#CCN2CCCC2)C1=O [(S)-Octylcarbamic acid 2-oxo-1-[4-(1-pyrrolidinyl)-2-butynyl]-3-pyrrolidinyl ester]	> 450
CCCCOC(=O)O[C@H]1CCN(CC#CCN2CCCC2)C1=O [(S)-2-Oxo-1-[4-(1-pyrrolidinyl)-2-butynyl]-3-pyrrolidinyl carbonic acid butyl ester]	0.9

Tested on: SDAT patients
Experiment: not given
Settings: cited from earlier work

Structure (SMILES)	improvement in SDAT patients compared to physostigmine
COC(=O)C1=CCCN(C)C1 [arecoline]	more consistent improvement when compared to the anticholinergic inhibitor physostigmine

Tested on: not listed separately
Experiment: Stability remark in Table V
Assay type: physicochemical
Settings: in place of the optical rotation

Structure (SMILES)	stability (in words)
O=C1[C@H](O)CCN1CC#CCN1CCC1 [Example 33, (R)-3-Hydroxy-1-[4-(1-azetidinyl)-2-butynyl]-2-pyrrolidinone]	not stable
O=C1[C@@H](O)CCN1CC#CCN1CCC1 [Example 31, (S)-3-Hydroxy-1-[4-(1-azetidinyl)-2-butynyl]-2-pyrrolidinone]	not stable
